In assay [1] the target is DGKα (Homo sapiens, UniProt P23743). The assay is described as follows: DGKα biochemical assay (ADP-Glo). The note with it: read-out: DGK α IC50. The method in brief:
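ADP-Glo kinase assay using OAG/PS (1:2) lipid substrate, sonicated, in HEPES pH 7.0 buffer with MgCl2, CaCl2, DTT, BSA, Triton X-100. Enzyme preincubated with compound 30 min at RT; substrate with ATP (DGKα: 400 μM) added, 45 min RT. Luminescence read; % inhibition vs DMSO and no-enzyme controls.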
Background: In ADP-Glo the light output rises with the ADP produced.

The target of assay [2] is T1, DGKζ (Homo sapiens, UniProt Q13574).
T1 construct: purchased Carna 12-110
The assay is described as follows: DGKζ biochemical assay (ADP-Glo). Particulars: read-out: DGK ζ IC50.

This passage reports IC50 results from US20230271954A1 (Gossamer Bio Services, Inc., priority 2020, published 2023).

DGKα, sequence (P23743 whole entry): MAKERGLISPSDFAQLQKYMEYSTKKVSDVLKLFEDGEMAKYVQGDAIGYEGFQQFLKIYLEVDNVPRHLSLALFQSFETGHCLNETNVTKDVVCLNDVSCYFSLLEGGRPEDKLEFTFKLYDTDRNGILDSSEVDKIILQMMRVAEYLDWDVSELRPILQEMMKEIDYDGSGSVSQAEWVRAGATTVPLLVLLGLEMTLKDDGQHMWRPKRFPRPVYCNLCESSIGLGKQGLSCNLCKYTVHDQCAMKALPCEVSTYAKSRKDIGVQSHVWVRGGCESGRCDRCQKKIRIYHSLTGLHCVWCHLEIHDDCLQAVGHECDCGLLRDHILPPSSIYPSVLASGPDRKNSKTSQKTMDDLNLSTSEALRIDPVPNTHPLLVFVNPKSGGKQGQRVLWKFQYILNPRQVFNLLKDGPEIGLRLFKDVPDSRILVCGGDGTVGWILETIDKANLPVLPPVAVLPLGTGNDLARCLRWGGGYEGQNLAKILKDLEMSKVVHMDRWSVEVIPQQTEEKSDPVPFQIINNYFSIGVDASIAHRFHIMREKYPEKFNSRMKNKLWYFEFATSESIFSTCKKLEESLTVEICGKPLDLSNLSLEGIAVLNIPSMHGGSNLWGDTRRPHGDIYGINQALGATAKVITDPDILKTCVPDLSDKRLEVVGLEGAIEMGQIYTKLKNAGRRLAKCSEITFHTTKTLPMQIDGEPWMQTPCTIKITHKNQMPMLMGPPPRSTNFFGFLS
T1 sequence (Q13574 1-929 isoform Q13574-4): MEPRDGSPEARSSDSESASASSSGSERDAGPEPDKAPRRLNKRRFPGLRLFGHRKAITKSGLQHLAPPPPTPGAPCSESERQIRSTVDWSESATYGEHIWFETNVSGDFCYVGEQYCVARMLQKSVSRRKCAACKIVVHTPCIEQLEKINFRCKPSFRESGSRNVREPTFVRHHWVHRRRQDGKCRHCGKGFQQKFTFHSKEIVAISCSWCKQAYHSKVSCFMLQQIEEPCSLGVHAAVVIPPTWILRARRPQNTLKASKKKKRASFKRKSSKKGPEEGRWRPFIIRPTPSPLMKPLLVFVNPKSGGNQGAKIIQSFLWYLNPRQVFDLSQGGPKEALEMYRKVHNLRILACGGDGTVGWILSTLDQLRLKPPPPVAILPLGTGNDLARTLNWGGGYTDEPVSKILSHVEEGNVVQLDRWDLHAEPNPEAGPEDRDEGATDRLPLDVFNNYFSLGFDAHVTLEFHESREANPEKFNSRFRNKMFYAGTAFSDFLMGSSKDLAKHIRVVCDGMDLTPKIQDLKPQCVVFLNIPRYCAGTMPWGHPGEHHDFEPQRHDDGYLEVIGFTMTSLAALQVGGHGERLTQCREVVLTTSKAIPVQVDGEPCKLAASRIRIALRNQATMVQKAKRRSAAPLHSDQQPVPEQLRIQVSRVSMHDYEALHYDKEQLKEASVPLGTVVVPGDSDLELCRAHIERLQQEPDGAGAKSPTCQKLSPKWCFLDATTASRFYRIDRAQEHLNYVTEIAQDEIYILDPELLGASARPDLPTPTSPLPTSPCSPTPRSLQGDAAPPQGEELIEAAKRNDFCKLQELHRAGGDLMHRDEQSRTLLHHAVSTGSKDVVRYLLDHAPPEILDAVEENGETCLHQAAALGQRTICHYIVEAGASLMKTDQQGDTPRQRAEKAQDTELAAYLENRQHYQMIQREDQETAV

Regarding `Cn1c(=O)c(C#N)c(N(C)[C@H]2CC[C@H](N(CC3CCC3)c3ccc(F)cc3CO)CC2)c2nc(C#N)ccc21` [Example 155, trans-8-((4-((cyclobutylmethyl)(4-fluoro-2-(hydroxymethyl)phenyl)amino)cyclohexyl)(methyl)amino)-5-methyl-6-oxo-5,6-dihydro-1,5-naphthyridine-2,7-dicarbonitrile], the IC50 in assay [1] and in assay [2] was 10 to 100 nM in each case.
For the compound `Cn1c(=O)c(C#N)c(N(C)[C@H]2CC[C@@H](N(c3ccc(F)cc3)C3CC3)CC2)c2nc(C#N)ccc21` [Example 50, cis-8-((4-(cyclopropyl(4-fluorophenyl)amino)cyclohexyl)(methyl)amino)-5-methyl-6-oxo-5,6-dihydro-1,5-naphthyridine-2,7-dicarbonitrile], the values for the IC50 in assay [1] and in assay [2] were < 10 nM and 100 to 1000 nM, respectively.
In the case of `Cc1cc(F)cc(N(CC2CC2)[C@H]2CC[C@H](N(C)c3cc(=O)n(C)c4ccc(C#N)nc34)CC2)c1` [Example 89], the IC50 in assay [1] and in assay [2] was ≥ 1000 nM in each case.
With `COc1cc(N(CC2CC2)[C@H]2CC[C@H](N(C)c3c(C#N)c(=O)n(C)c4ccc(Cl)nc34)CC2)ccc1F` [Example 39, trans-6-chloro-4-((4-((cyclopropylmethyl)(4-fluoro-3-methoxyphenyl)amino)cyclohexyl)(methyl)amino)-1-methyl-2-oxo-1,2-dihydro-1,5-naphthyridine-3-carbonitrile], the IC50 in assay [1] is 10 to 100 nM; in assay [2], 100 to 1000 nM.
Regarding `Cn1c(=O)c(C#N)c(N(C)[C@H]2CC[C@@H](N(C[C@H]3CCOC3)c3ccc(F)cc3)CC2)c2nc(C#N)ccc21` [Example 66], the IC50 in assay [1] lay within 10 to 100 nM; in assay [2], 100 to 1000 nM.
With `Cn1c(=O)c(C#N)c(N(C)[C@H]2CC[C@@H](N(C(=O)C3CC3)c3ccc(F)cc3)CC2)c2nc(C#N)ccc21` [Example 206, cis-N-(4-((3,6-dicyano-1-methyl-2-oxo-1,2-dihydro-1,5-naphthyridin-4-yl)(methyl)amino)cyclohexyl)-N-(4-fluorophenyl)cyclopropanecarboxamide], the IC50 is 10 to 100 nM in assay [1] and ≥ 1000 nM in assay [2].
For `Cn1c(=O)c(C#N)c(N(C)[C@H]2CC[C@@H](N(CC3CCCOC3)c3ccc(F)cc3)CC2)c2nc(C#N)ccc21` (relative stereo) [Example 57, cis-8-((4-((4-fluorophenyl)((tetrahydro-2H-pyran-3-yl)methyl)amino)cyclohexyl)(methyl)amino)-5-methyl-6-oxo-5,6-dihydro-1,5-naphthyridine-2,7-dicarbonitrile], the IC50 in assay [1] is < 10 nM; in assay [2], 10 to 100 nM.
Turning to `Cn1c(=O)c(C#N)c(N(C)[C@H]2CC[C@@H](N(CC3COCCO3)c3ccc4c(c3)OCO4)CC2)c2nc(C#N)ccc21` (stereo partly drawn) [Example 177, cis-8-((4-(((1,4-dioxan-2-yl)methyl)(benzo[d][1,3]dioxol-5-yl)amino)cyclohexyl)(methyl)amino)-5-methyl-6-oxo-5,6-dihydro-1,5-naphthyridine-2,7-dicarbonitrile], the IC50 in assay [1] and in assay [2] was < 10 nM in each case.
For the compound `Cn1c(=O)c(C#N)c(N(C)[C@H]2CC[C@H](N(CC3CC3)c3ccc(F)c(OC(F)F)c3)CC2)c2nc(Cl)ccc21` [Example 96], the IC50 in assay [1] is < 10 nM; in assay [2], ≥ 1000 nM.
Consider `Cc1[nH]c2ccccc2c1C(=O)N[C@H]1CC[C@H](N(CC2COC2)c2ccccc2)CC1` [Example 4C, trans-2-Methyl-N-(4-((oxetan-3-ylmethyl)(phenyl)amino)cyclohexyl)-1H-indole-3-carboxamide], for which the IC50 in assay [1] and in assay [2] was ≥ 1000 nM each time.
For the compound `Cn1c(=O)cc(N(C)[C@H]2CC[C@@H](N(CC(C)(C)CO)c3ccc(F)cc3)CC2)c2nc(C#N)ccc21` [Example 194, cis-8-((-4-((4-fluorophenyl)(3-hydroxy-2,2-dimethylpropyl)amino)cyclohexyl)(methyl)amino)-5-methyl-6-oxo-5,6-dihydro-1,5-naphthyridine-2-carbonitrile], the IC50 in assay [1] is 100 to 1000 nM; in assay [2], ≥ 1000 nM.
`COc1cc(N(CC2CC2)[C@H]2CC[C@H](N(C)c3c(C#N)c(=O)n(C)c4ccc(C#N)nc34)CC2)cc(F)c1F` [Example 77]: the values for the IC50 in assay [1] and in assay [2] were ≥ 1000 nM and 100 to 1000 nM, respectively.
For the compound `Cc1cc(F)cc(N(CC2CCC2)[C@H]2CC[C@@H](N(C)c3cc(=O)n(C)c4ccc(C#N)nc34)CC2)c1` [Example 114, cis-8-((-4-((cyclobutylmethyl)(3-fluoro-5-methylphenyl)amino)cyclohexyl)(methyl)amino)-5-methyl-6-oxo-5,6-dihydro-1,5-naphthyridine-2-carbonitrile], the results for the IC50 in assay [1] and in assay [2] were 10 to 100 nM and ≥ 1000 nM, respectively.
Regarding `COc1cc(N(CC2CC2)[C@H]2CC[C@@H](N(C)c3c(C#N)c(=O)n(C)c4ccc(C#N)nc34)CC2)cc(OC)c1F` [Example 101], the IC50 in assay [1] is ≥ 1000 nM; in assay [2], 10 to 100 nM.
Taken in the same sequence, the figures for `Cn1c(=O)c(C#N)c(N(C)[C@H]2CC[C@@H](N(CC3CC3)c3cc4c(cn3)OCO4)CC2)c2nc(C#N)ccc21` [Example 213, cis-8-((-4-([1,3]dioxolo[4,5-c]pyridin-6-yl(cyclopropylmethyl)amino)cyclohexyl)(methyl)amino)-5-methyl-6-oxo-5,6-dihydro-1,5-naphthyridine-2,7-dicarbonitrile] were 10 to 100 nM and 100 to 1000 nM.
As to `Cc1ccccc1N(CC1CC1)[C@H]1CC[C@H](N(C)c2c(C#N)c(=O)n(C)c3ccc(C#N)nc23)CC1` [Example 71, trans-8-((4-((cyclopropylmethyl)(o-tolyl)amino)cyclohexyl)(methyl)amino)-5-methyl-6-oxo-5,6-dihydro-1,5-naphthyridine-2,7-dicarbonitrile], the IC50 in assay [1] was ≥ 1000 nM; in assay [2] it was 10 to 100 nM.
Take `Cn1c(=O)cc(N(C)[C@H]2CC[C@@H](N(CC3CCC3)c3cc4c(cc3F)OCO4)CC2)c2nc(C#N)ccc21` [Example 161, cis-8-((-4-((cyclobutylmethyl)(6-fluorobenzo[d][1,3]dioxol-5-yl)amino)cyclohexyl)(methyl)amino)-5-methyl-6-oxo-5,6-dihydro-1,5-naphthyridine-2-carbonitrile]: the IC50 in assay [1] is < 10 nM; in assay [2], 10 to 100 nM.
Taken in the same sequence, the figures for `Cn1c(=O)c(C#N)c(N(C)[C@H]2CC[C@H](N(CC3CC3)c3cc4c(cn3)OCO4)CC2)c2nc(C#N)ccc21` [Example 212, trans-8-((-4-([1,3]dioxolo[4,5-c]pyridin-6-yl(cyclopropylmethyl)amino)cyclohexyl)(methyl)amino)-5-methyl-6-oxo-5,6-dihydro-1,5-naphthyridine-2,7-dicarbonitrile] were ≥ 1000 nM and ≥ 1000 nM.
Taken in the same sequence, the figures for `Cn1c(=O)c(C#N)c(N(C)[C@H]2CC[C@@H](N(CC3CC3)c3ccc4c(c3)OCO4)CC2)c2nc(C#N)ccc21` [Example 61, cis-8-((4-(benzo[d][1,3]dioxol-5-yl(cyclopropylmethyl)amino)cyclohexyl)(methyl)amino)-5-methyl-6-oxo-5,6-dihydro-1,5-naphthyridine-2,7-dicarbonitrile] were 100 to 1000 nM and 10 to 100 nM.
Take `Cn1c(=O)cc(N[C@H]2CC[C@@H](N(CC3COC3)c3ccccc3)CC2)c2nc(C#N)ccc21` [Example 3Q, cis-5-Methyl-8-((4-((oxetan-3-ylmethyl)(phenyl)amino)cyclohexyl)amino)-6-oxo-5,6-dihydro-1,5-naphthyridine-2-carbonitrile]: the IC50 in assay [1] was 100 to 1000 nM; in assay [2], ≥ 1000 nM.
For the compound `Cn1c(=O)c(C#N)c(N(C)[C@H]2CC[C@@H](N(CC3COC3)c3ccc(F)cc3)CC2)c2nc(Cl)ccc21` [Example 3M, cis-6-Chloro-4-[[4-(N-4-fluorophenyl-N-oxetan-3-ylmethylanilino)cyclohexyl]-methylamino]-1-methyl-2-oxo-1,2-dihydro-1,5-naphthyridine-3-carbonitrile], the IC50 in assay [1] is 10 to 100 nM; in assay [2] it was 100 to 1000 nM.
As for `CN1Cc2ccc(N(CC3CC3)[C@H]3CC[C@@H](N(C)c4c(C#N)c(=O)n(C)c5ccc(C#N)nc45)CC3)cc2C1=O` [Example 204, cis-8-((-4-((cyclopropylmethyl)(2-methyl-3-oxoisoindolin-5-yl)amino)cyclohexyl)(methyl)amino)-5-methyl-6-oxo-5,6-dihydro-1,5-naphthyridine-2,7-dicarbonitrile], the IC50 in assay [1] and in assay [2] was ≥ 1000 nM each time.
For the compound `Cc1ccc(N(CC2CCC2)[C@H]2CC[C@@H](N(C)c3c(C#N)c(=O)n(C)c4ccc(C#N)nc34)CC2)cc1` [Example 99], the IC50 was < 10 nM in assay [1] and 10 to 100 nM in assay [2].
Taken in the same sequence, the figures for `Cc1cc(F)ccc1N(CC1CCCCO1)[C@H]1CC[C@H](N(C)c2c(C#N)c(=O)n(C)c3ccc(C#N)nc23)CC1` (stereo partly drawn) [Example 136, trans-8-((-4-((4-fluoro-2-methylphenyl)((tetrahydro-2H-pyran-2-yl)methyl)amino)cyclohexyl)(methyl)amino)-5-methyl-6-oxo-5,6-dihydro-1,5-naphthyridine-2,7-dicarbonitrile] were 100 to 1000 nM and 10 to 100 nM.
`Cc1cc(F)ccc1N(CC1CC(F)(F)C1)[C@H]1CC[C@@H](N(C)c2cc(=O)n(C)c3ccc(C#N)nc23)CC1` [Example 184, cis-8-((-4-(((3,3-difluorocyclobutyl)methyl)(4-fluoro-2-methylphenyl)amino)cyclohexyl)(methyl)amino)-5-methyl-6-oxo-5,6-dihydro-1,5-naphthyridine-2-carbonitrile]: the IC50 in assay [1] fell in the range of 100 to 1000 nM; in assay [2] it was 10 to 100 nM.

The IC50 is the concentration needed to halve the response being measured.
